Data from EPA's ToxRefDB 2.

Assays:
rat [1] = details: Subchronic oral toxicity in rodents, fischer, Feed, dose end: 13 week, group: systemic
mouse [2] = details: Subchronic oral toxicity in rodents, b6c3f1, Feed, dose end: 13 week, group: systemic, systemic / in life observation / body weight / body weight + systemic / in life observation / body weight / body weight gain
rat [3] = details: Developmental neurotoxicity study, sprague dawley, Oral, Gavage/Intubation, dose end: 90 PND, group: cannot be grouped
rat [4] = details: Combined chronic toxicity/carcinogenicity, fischer, Oral, Feed, dose end: 2 year, group: systemic
rat [5] = details: Developmental neurotoxicity study; sprague dawley; Oral; Gavage/Intubation; dose end: 57 PND; group: cannot be grouped; reproductive / offspring survival early / birth index / birth index + systemic / in life observation / body weight / body weight + …
mouse [6] = details: Developmental neurotoxicity study, other, Oral, Gavage/Intubation, dose end: 21 PND, group: cannot be grouped
rat [7] = details: Developmental neurotoxicity study, sprague dawley, Oral, Gavage/Intubation, dose end: 70 PND, group: cannot be grouped
mouse [8] = details: Subchronic oral toxicity in rodents, b6c3f1, Feed, dose end: 13 week, group: systemic
rat [9] = details: Subchronic oral toxicity in rodents, fischer, Feed, dose end: 13 week, group: systemic, systemic / clinical chemistry / cholesterol / cholesterol + systemic / clinical chemistry / protein / protein + systemic / clinical …
rat [10] = details: Developmental neurotoxicity study; sprague dawley; Oral; Gavage/Intubation; dose end: 112 PND; group: cannot be grouped; systemic / organ weight / brain / absolute
rat [11] = details: Subchronic oral toxicity in rodents, fischer, Feed, dose end: 13 week, group: systemic; remark: listed apart in the source
rat [12] = details: Subchronic oral toxicity in rodents, sprague dawley, Feed, dose end: 90 day, group: cholinesterase, cholinesterase / cholinesterase / cholinesterase / brain cholinesterase (che)
rat [13] = details: Combined chronic toxicity/carcinogenicity, sprague dawley, Oral, Feed, dose end: 28 month
dog = details: Chronic toxicity, beagle, Oral, Feed, dose end: 52 week
rat [14] = details: Prenatal developmental toxicity study, sprague dawley, Oral, Gavage/Intubation, dose end: 15 GD
[15] = systemic / in life observation / body weight / body weight + systemic / in life observation / body weight / body weight gain
[16] = systemic / in life observation / body weight / body weight + systemic / in life observation / body weight / body weight gain + systemic / in…
[17] = systemic / in life observation / body weight / body weight
[18] = systemic / in life observation / body weight / body weight + developmental / offspring survival late / [other] / [other] + systemic / in …
[19] = systemic / in life observation / body weight / body weight + systemic / organ weight / liver / absolute
[20] = developmental / offspring survival late / [other] / [other] + systemic / in life observation / clinical signs / ataxia + systemic / in life …
[21] = systemic / in life observation / clinical signs / head tilt
[22] = systemic / in life observation / body weight / body weight + systemic / in life observation / body weight / body weight gain + developmental…
[23] = systemic / in life observation / body weight / body weight + systemic / in life observation / body weight / body weight gain + systemic / …
[24] = group: cholinesterase, cholinesterase / cholinesterase / cholinesterase / brain cholinesterase (che) + cholinesterase / cholinesterase / cholinesterase / …
[25] = group: systemic, systemic / pathology microscopic / adrenal gland / pheochromocytoma benign + systemic / in life observation / clinical signs / aggressive …
[26] = group: cholinesterase, cholinesterase / cholinesterase / cholinesterase / brain cholinesterase (che)
[27] = group: systemic, systemic / hematology / erythrocyte (rbc) count differential / erythrocyte (rbc) + systemic / hematology / hematocrit (hct) / hematocrit (…
[28] = group: developmental, developmental / developmental malformation / bone / ossification sites
[29] = group: maternal, systemic / in life observation / body weight / body weight + systemic / in life observation / body weight / body weight gain + systemic / in…

O=C1NC(=O)C(c2ccccc2)(c2ccccc2)N1 [5,5-Diphenylhydantoin]
LEL (rat [1]; [15]): 122 mg/kg/day
LOAEL (rat [1]; [15]): 122 mg/kg/day
NEL (rat [1]; [16]): 60.7 mg/kg/day
NOAEL (rat [1]; [16]): 60.7 mg/kg/day
LEL (mouse [2]): 20.5 mg/kg/day
LOAEL (mouse [2]): 20.5 mg/kg/day
NEL (mouse [2]): < 20.5 mg/kg/day
NOAEL (mouse [2]): < 20.5 mg/kg/day
LEL (rat [3]; [17]): 100 mg/kg/day
NEL (rat [3]; [17]): < 100 mg/kg/day
LOAEL (rat [3]; [18]): > 200 mg/kg/day
NOAEL (rat [3]; [18]): ≥ 200 mg/kg/day
NEL (rat [4]; [17]): 12.5 mg/kg/day
LEL (rat [4]; [19]): 25 mg/kg/day
LOAEL (rat [4]; [19]): > 25 mg/kg/day
NOAEL (rat [4]; [19]): ≥ 25 mg/kg/day
LEL (rat [5]): 200 mg/kg/day
LOAEL (rat [5]): > 200 mg/kg/day
NEL (rat [5]): < 200 mg/kg/day
NOAEL (rat [5]): ≥ 200 mg/kg/day
LOAEL (mouse [6]; [20]): > 35 mg/kg/day
NOAEL (mouse [6]; [20]): ≥ 35 mg/kg/day
LEL (mouse [6]; [21]): 10 mg/kg/day
NEL (mouse [6]; [21]): < 10 mg/kg/day
NEL (rat [7]; [15]): 150 mg/kg/day
LEL (rat [7]; [22]): 200 mg/kg/day
LOAEL (rat [7]; [22]): > 200 mg/kg/day
NOAEL (rat [7]; [22]): ≥ 200 mg/kg/day
LEL (mouse [8]; [15]): 11.2 mg/kg/day
NEL (mouse [8]; [15]): < 11.2 mg/kg/day
LOAEL (mouse [8]; [23]): 90 mg/kg/day
NOAEL (mouse [8]; systemic / pathology microscopic / liver / hypertrophy + systemic / in life observation / mortality / mortality): 45 mg/kg/day
LEL (rat [9]): 50 mg/kg/day
LOAEL (rat [9]): > 100 mg/kg/day
NEL (rat [9]): 25 mg/kg/day
NOAEL (rat [9]): ≥ 100 mg/kg/day
LEL (rat [10]): 100 mg/kg/day
LOAEL (rat [10]): > 100 mg/kg/day
NEL (rat [10]): 50 mg/kg/day
NOAEL (rat [10]): ≥ 100 mg/kg/day
LEL (rat [11]; [15]): 122 mg/kg/day
LOAEL (rat [11]; [23]): 234 mg/kg/day
NEL (rat [11]; [23]): 60.7 mg/kg/day
NOAEL (rat [11]; [23]): 122 mg/kg/day

COP(=O)(NC(C)=O)SC (configuration not stated) [Acephate]
LEL (rat [12]): 0.12 mg/kg/day
LOAEL (rat [12]): 0.12 mg/kg/day
NEL (rat [12]): < 0.12 mg/kg/day
NOAEL (rat [12]): < 0.12 mg/kg/day
LEL (rat [13]; [24]): 0.25 mg/kg/day
LOAEL (rat [13]; [24]): 35 mg/kg/day
NEL (rat [13]; [24]): < 0.25 mg/kg/day
NOAEL (rat [13]; [24]): 2.5 mg/kg/day
LEL (rat [13]; [25]): 0.25 mg/kg/day
LOAEL (rat [13]; [25]): > 35 mg/kg/day
NEL (rat [13]; [25]): < 0.25 mg/kg/day
NOAEL (rat [13]; [25]): ≥ 35 mg/kg/day
LEL (dog; [26]): 0.27 mg/kg/day
LOAEL (dog; [26]): 0.27 mg/kg/day
NEL (dog; [26]): < 0.27 mg/kg/day
NOAEL (dog; [26]): < 0.27 mg/kg/day
LEL (dog; [27]): 20.2 mg/kg/day
LOAEL (dog; [27]): 20.2 mg/kg/day
NEL (dog; [27]): 3.11 mg/kg/day
NOAEL (dog; [27]): 3.11 mg/kg/day
LEL (rat [14]; [28]): 75 mg/kg/day
LOAEL (rat [14]; [28]): 75 mg/kg/day
NEL (rat [14]; [28]): 20 mg/kg/day
NOAEL (rat [14]; [28]): 20 mg/kg/day
LEL (rat [14]; [29]): 20 mg/kg/day
LOAEL (rat [14]; [29]): 20 mg/kg/day
NEL (rat [14]; [29]): 5 mg/kg/day
NOAEL (rat [14]; [29]): 5 mg/kg/day
